# What was measured:
# Assay type in all cases: cell-based
# [1] = test system: Staphylococcus aureus ATCC29213; test: MIC, microbroth dilution (NCCLS); conditions: rifS strain, Cation-Adjusted Mueller-Hinton Broth, 37° C., read-out: Antimicrobial activity (MIC)
# [2] = test system: Staphylococcus aureus ATCC29213 rpoB^D417Y; test: microbe, parasite or virus in culture; conditions: ATCC29213, read-out: Antimicrobial activity (MIC)
# Experimental: (§1) Representative compounds were assayed for antimicrobial activity as follows: Minimum Inhibitory Concentrations (“MICs”) were determined by the microbroth dilution method as per NCCLS guidelines (National Committee for Clinical Laboratory Standards. 2000. Methods for dilution antimicrobial susceptibility tests for bacteria that grow aerobically, 5th ed. M7-A5. National Committee for Clinical Laboratory Standards, Wayne, Pa.), except that all growth incubations were conducted at 37° C. Bacterial cultures were tested in the following bacteriological media: S. aureus, S. epidermidis, and E. coli in Cation-Adjusted Mueller-Hinton Broth, S. pneumoniae in THY Broth supplemented with 1 mg/mL catalase under 5% CO2 atmosphere, S. pyogenes in THY Broth, E. faecalis in BHI Broth, H. influenzae in BHI Broth supplemented with 0.75 μL of 1 mg/mL NAD and 150 μL of 1 mg/ml hematin per 5 mL, and M. smegmatis in Middlebrook Broth plus ADC Enrichment.
# (§2) S. aureus ATCC 29213 RpoB^H418Y is a rifampin-resistant strain with a mutation in RNA polymerase, the biological target of rifamycin antibiotics. […] S. aureus EN1252a gyrA^S84L grlA^S80F is a quinolone-resistant strain due to double mutations to DNA gyrase and topoisomerase IV, the two biological targets for quinolone antibiotics.
# [3] = test system: Staphylococcus aureus ATCC29213 rpoB^H418Y; test: microbe, parasite or virus in culture; conditions: ATCC29213, read-out: Antimicrobial activity (MIC)
# Experimental: as §1, §2
# [4] = test system: Staphylococcus aureus EN1252a gyrA^S84L grlA^S80F; test: microbe, parasite or virus in culture; conditions: read-out: Antimicrobial activity (MIC)
# Experimental: as §1, §2
# [5] = test system: Staphylococcus epidermidis ATCC12228; test: MIC, microbroth dilution (NCCLS); conditions: rifS strain, Cation-Adjusted Mueller-Hinton Broth, 37° C., read-out: Antimicrobial activity (MIC)
# [6] = test system: Streptococcus pneumoniae ATCC6303; test: MIC, microbroth dilution (NCCLS); conditions: rifS strain, THY Broth with 1 mg/mL catalase, 5% CO2, 37° C., read-out: Antimicrobial activity (MIC)
# [7] = test system: Streptococcus pyogenes ATCC19615; test: MIC, microbroth dilution (NCCLS); conditions: rifS strain, THY Broth, 37° C., read-out: Antimicrobial activity (MIC)
# [8] = test system: Enterococcus faecalis ATCC29212; test: MIC, microbroth dilution (NCCLS); conditions: rifS strain, BHI Broth, 37° C., read-out: Antimicrobial activity (MIC)
# [9] = test system: Haemophilus influenzae ATCC10211; test: MIC, microbroth dilution (NCCLS); conditions: rifS strain, BHI Broth with NAD and hematin, 37° C., read-out: Antimicrobial activity (MIC)
# [10] = test system: Escherichia coli ATCC25922; test: MIC, microbroth dilution (NCCLS); conditions: rifS strain, Cation-Adjusted Mueller-Hinton Broth, 37° C., read-out: Antimicrobial activity (MIC)
# [11] = test system: Mycobacterium smegmatis ATCC700084; test: MIC, microbroth dilution (NCCLS); conditions: Mycolicibacterium smegmatis, rifS strain, Middlebrook Broth plus ADC Enrichment, 37° C., read-out: Antimicrobial activity (MIC)
SMILES,MIC [1],MIC [2],MIC [3],MIC [4],MIC [5],MIC [6],MIC [7],MIC [8],MIC [9],MIC [10],MIC [11]
"CO[C@H]1/C=C/O[C@@]2(C)Oc3c(C)c(O)c4c(c3C2=O)C(=O)C(N2CCC(NC3CCN(c5c(F)cc6c(=O)c(C(=O)O)cn(C7CC7)c6c5Cl)C3)CC2)=C(NC(=O)/C(C)=C\C=C\[C@H](C)[C@H](O)[C@@H](C)[C@@H](O)[C@@H](C)[C@H](OC(C)=O)[C@@H]1C)C4=O (mixture of isomers) [Example 29, (R/S)-3-{4-[1-(3-Carboxy-8-chloro-1-cyclopropyl-6-fluoro-4-oxo-1,4-dihydroquinolin-7-yl)-pyrrolidin-3-ylamino]-piperidin-1-yl}rifamycin S]",0.004 to 0.5 µg/mL,0.06 to 32 µg/mL,0.06 to 16 µg/mL,0.004 to 0.5 µg/mL,0.008 to 0.063 µg/mL,0.008 to 0.125 µg/mL,0.008 to 0.063 µg/mL,2 to 32 µg/mL,0.125 to 2 µg/mL,0.125 to 8 µg/mL,0.5 to 64 µg/mL
"COc1c(N2CCC(NC3CCN(C4=C5NC(=O)/C(C)=C\C=C\[C@H](C)[C@H](O)[C@@H](C)[C@@H](O)[C@@H](C)[C@H](OC(C)=O)[C@H](C)[C@@H](OC)/C=C/O[C@@]6(C)Oc7c(C)c(O)c(c(c7C6=O)C4=O)C5=O)CC3)C2)c(F)cc2c(=O)c(C(=O)O)cn(C3CC3)c12 (mixture of isomers) [Example 30, (R/S)-3-{4-[1-(3-Carboxy-1-cyclopropyl-6-fluoro-8-methoxy-4-oxo-1,4-dihydroquinolin-7-yl)-pyrrolidin-3-ylamino]-piperidin-1-yl}rifamycin S]",0.004 to 0.5 µg/mL,0.06 to 32 µg/mL,0.06 to 16 µg/mL,0.004 to 0.5 µg/mL,0.008 to 0.063 µg/mL,0.008 to 0.125 µg/mL,0.008 to 0.063 µg/mL,2 to 32 µg/mL,0.125 to 2 µg/mL,0.125 to 8 µg/mL,0.5 to 64 µg/mL
"COc1c(N2CCCC(NC3CCN(C4=C5NC(=O)/C(C)=C\C=C\[C@H](C)[C@H](O)[C@@H](C)[C@@H](O)[C@@H](C)[C@H](OC(C)=O)[C@H](C)[C@@H](OC)/C=C/O[C@@]6(C)Oc7c(C)c(O)c(c(c7C6=O)C4=O)C5=O)CC3)C2)c(F)cc2c(=O)c(C(=O)O)cn(C3CC3)c12 (mixture of isomers) [Example 32, (R/S)-3-{4-[1-(3-Carboxy-1-cyclopropyl-6-fluoro-8-methoxy-4-oxo-1,4-dihydroquinolin-7-yl)-piperidin-3-ylamino]-piperidin-1-yl}rifamycin S]",0.004 to 0.5 µg/mL,0.06 to 32 µg/mL,0.06 to 16 µg/mL,0.004 to 0.5 µg/mL,0.008 to 0.063 µg/mL,0.008 to 0.125 µg/mL,0.008 to 0.063 µg/mL,2 to 32 µg/mL,0.125 to 2 µg/mL,0.125 to 8 µg/mL,0.5 to 64 µg/mL
COc1c(N2CCC(N(C)C3CCN(C4=C5NC(=O)/C(C)=C\C=C\[C@H](C)[C@H](O)[C@@H](C)[C@@H](O)[C@@H](C)[C@H](OC(C)=O)[C@H](C)[C@@H](OC)/C=C/O[C@@]6(C)Oc7c(C)c(O)c(c(c7C6=O)C4=O)C5=O)CC3)C2)c(F)cc2c(=O)c(C(=O)O)cn(C3CC3)c12 (mixture of isomers) [Example 34],0.004 to 0.5 µg/mL,0.06 to 32 µg/mL,0.06 to 16 µg/mL,0.004 to 0.5 µg/mL,0.008 to 0.063 µg/mL,0.008 to 0.125 µg/mL,0.008 to 0.063 µg/mL,2 to 32 µg/mL,0.125 to 2 µg/mL,0.125 to 8 µg/mL,0.5 to 64 µg/mL
"CO[C@H]1/C=C/O[C@@]2(C)Oc3c(C)c(O)c4c(c3C2=O)C(=O)C(N2CCC(NCC3CCN(c5c(F)cc6c(=O)c(C(=O)O)cn(C7CC7)c6c5Cl)C3)CC2)=C(NC(=O)/C(C)=C\C=C\[C@H](C)[C@H](O)[C@@H](C)[C@@H](O)[C@@H](C)[C@H](OC(C)=O)[C@@H]1C)C4=O (mixture of isomers) [Example 36, (R/S)-3-{4-[1-(3-Carboxy-8-chloro-1-cyclopropyl-6-fluoro-4-oxo-1,4-dihydroquinolin-7-yl)-(pyrrolidin-3-ylmethyl)-amino]-piperidin-1-yl}rifamycin S]",0.004 to 0.5 µg/mL,0.06 to 32 µg/mL,0.06 to 16 µg/mL,0.004 to 0.5 µg/mL,0.008 to 0.063 µg/mL,0.008 to 0.125 µg/mL,0.008 to 0.063 µg/mL,2 to 32 µg/mL,0.125 to 2 µg/mL,0.125 to 8 µg/mL,0.5 to 64 µg/mL
CO[C@H]1/C=C/O[C@@]2(C)Oc3c(C)c(O)c4c(c3C2=O)C(=O)C(N2CCC(NCC3CCN(c5nc6c(cc5F)c(=O)c(C(=O)O)cn6-c5ccc(F)cc5F)C3)CC2)=C(NC(=O)/C(C)=C\C=C\[C@H](C)[C@H](O)[C@@H](C)[C@@H](O)[C@@H](C)[C@H](OC(C)=O)[C@@H]1C)C4=O (mixture of isomers) [Example 37],0.004 to 0.5 µg/mL,0.06 to 32 µg/mL,0.06 to 16 µg/mL,0.004 to 0.5 µg/mL,0.008 to 0.063 µg/mL,0.008 to 0.125 µg/mL,0.008 to 0.063 µg/mL,2 to 32 µg/mL,0.125 to 2 µg/mL,0.125 to 8 µg/mL,0.5 to 64 µg/mL
